Structures can show the parent of a compound that is named as a salt.
Molecular target: T1, ALK2 (Homo sapiens, UniProt Q04771)
T1 construct: purchased ThermoFisher Scientific (Life Technologies)
T1 sequence (Q04771 21-509): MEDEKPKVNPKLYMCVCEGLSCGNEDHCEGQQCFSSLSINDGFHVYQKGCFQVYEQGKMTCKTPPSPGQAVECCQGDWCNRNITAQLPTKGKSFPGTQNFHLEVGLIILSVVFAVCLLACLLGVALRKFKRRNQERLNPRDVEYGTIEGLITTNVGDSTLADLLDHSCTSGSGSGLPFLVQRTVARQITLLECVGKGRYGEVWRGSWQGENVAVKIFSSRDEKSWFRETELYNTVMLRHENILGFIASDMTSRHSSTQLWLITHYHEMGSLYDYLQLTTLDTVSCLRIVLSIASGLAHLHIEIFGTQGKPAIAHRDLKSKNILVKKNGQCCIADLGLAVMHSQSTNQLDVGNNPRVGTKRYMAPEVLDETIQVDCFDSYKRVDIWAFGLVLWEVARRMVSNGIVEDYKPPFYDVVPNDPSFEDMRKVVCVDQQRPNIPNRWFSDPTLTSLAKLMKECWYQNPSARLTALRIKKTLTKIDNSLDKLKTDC
Assay: LanthaScreen Eu Kinase Binding Assay, ALK2 inhibition
Conditions: 1 micromolar concentration
Protocol: Biochemical assays to measure the inhibitory effects of the compounds were performed by ThermoFisher Scientific (Life Technologies). ALK2 inhibition was tested using LanthaScreen™ Eu Kinase Binding Assay screening protocol.

Row | SMILES | inhibition at 1 µM [%]
1 | C=CCC(C)c1nc(Nc2cn(-c3cc(OC)c(OC)c(OC)c3)cn2)c2cnn(C(C)C)c2n1 (stereo not drawn) [Compound 27f, 1-isopropyl-6-(pent-4-en-2-yl)-N-(1-(3,4,5-trimethoxyphenyl)-1H-imidazol-4-yl)-1H-pyrazolo[3,4-d]pyrimidin-4-amine] | > 50
2 | COc1cc(-n2cnc(Nc3nc(C4CC(F)(F)C4)nc4c3cnn4C(C)C)c2)cc(OC)c1OC [Compound 28e, 6-(3,3-difluorocyclobutyl)-1-isopropyl-N-(1-(3,4,5-trimethoxyphenyl)-1H-imidazol-4-yl)-1H-pyrazolo[3,4-d]pyrimidin-4-amine] | > 50
3 | CCCC(C)c1nc(Nc2cn(-c3cc(OC)c(OC)c(OC)c3)cn2)c2cnn(C(C)C)c2n1 (stereo not drawn) [Compound 29a, 1-isopropyl-6-(pentan-2-yl)-N-(1-(3,4,5-trimethoxyphenyl)-1H-imidazol-4-yl)-1H-pyrazolo[3,4-d]pyrimidin-4-amine] | > 50
4 | COCCc1nc(Nc2cn(-c3cc(OC)c(OC)c(OC)c3)cn2)c2cnn(C(C)C)c2n1 [Compound 30e, 1-isopropyl-6-(2-methoxyethyl)-N-(1-(3,4,5-trimethoxyphenyl)-1H-imidazol-4-yl)-1H-pyrazolo[3,4-d]pyrimidin-4-amine] | > 50
5 | COc1cc(-n2cnc(Nc3nc(C)nc4c3cnn4C(C)C)c2)cc(OC)c1OC [Compound 31b, 1-isopropyl-6-methyl-N-(1-(3,4,5-trimethoxyphenyl)-1H-imidazol-4-yl)-1H-pyrazolo[3,4-d]pyrimidin-4-amine] | > 50
6 | COc1cc(-n2cnc(Nc3nc(C(C)(C)C)nc4c3cnn4C(C)C)c2)cc(OC)c1OC [Compound 32d, 6-(tert-butyl)-1-isopropyl-N-(1-(3,4,5-trimethoxyphenyl)-1H-imidazol-4-yl)-1H-pyrazolo[3,4-d]pyrimidin-4-amine] | > 50
7 | CCC(C)c1nc(Nc2cn(-c3cc(OC)c(OC)c(OC)c3)cn2)c2cnn(C(C)C)c2n1 (stereo not drawn) [Compound 33d, 6-(sec-butyl)-1-isopropyl-N-(1-(3,4,5-trimethoxyphenyl)-1H-imidazol-4-yl)-1H-pyrazolo[3,4-d]pyrimidin-4-amine] | > 50
8 | COc1cc(-n2cnc(Nc3nc(CC4CC4)nc4c3cnn4C(C)C)c2)cc(OC)c1OC [Compound 34d, 6-(cyclopropylmethyl)-1-isopropyl-N-(1-(3,4,5-trimethoxyphenyl)-1H-imidazol-4-yl)-1H-pyrazolo[3,4-d]pyrimidin-4-amine] | > 50
9 | COc1cc(-n2cnc(Nc3nc(C4CCC4)nc4c3cnn4C(C)C)c2)cc(OC)c1OC [Compound 35d, 6-cyclobutyl-1-isopropyl-N-(1-(3,4,5-trimethoxyphenyl)-1H-imidazol-4-yl)-1H-pyrazolo[3,4-d]pyrimidin-4-amine] | > 50
10 | COc1cc(-n2cnc(Nc3nc(CO)nc4c3cnn4C(C)C)c2)cc(OC)c1OC [Compound 36e, (1-isopropyl-4-((1-(3,4,5-trimethoxyphenyl)-1H-imidazol-4-yl)amino)-1H-pyrazolo[3,4-d]pyrimidin-6-yl)methanol] | > 50
11 | COc1cc(-n2cnc(Nc3nc(C4=CCN(C)CC4)nc4c3cnn4C(C)C)c2)cc(OC)c1OC [Compound 38b, 1-isopropyl-6-(1-methyl-1,2,3,6-tetrahydropyridin-4-yl)-N-(1-(3,4,5-trimethoxyphenyl)-1H-imidazol-4-yl)-1H-pyrazolo[3,4-d]pyrimidin-4-amine] | > 50
12 | COc1cc(-n2cnc(Nc3nc(C(C)C)nc4c3cnn4-c3ccccc3)c2)cc(OC)c1OC [Compound 39d, 6-isopropyl-1-phenyl-N-(1-(3,4,5-trimethoxyphenyl)-1H-imidazol-4-yl)-1H-pyrazolo[3,4-d]pyrimidin-4-amine] | > 50
13 | COc1cc(-n2cnc(Nc3nc(C4=CN(C(=O)OC(C)(C)C)CC4)nc4c3cnn4C(C)C)c2)cc(OC)c1OC [Compound 40b, tert-butyl 4-(1-isopropyl-4-((1-(3,4,5-trimethoxyphenyl)-1H-imidazol-4-yl)amino)-1H-pyrazolo[3,4-d]pyrimidin-6-yl)-2,3-dihydro-1H-pyrrole-1-carboxylate] | > 50
14 | COc1cc(-n2cnc(Nc3nc(C4CCN(C(=O)OC(C)(C)C)C4)nc4c3cnn4C(C)C)c2)cc(OC)c1OC (stereo not drawn) [Compound 41a, tert-butyl 3-(1-isopropyl-4-((1-(3,4,5-trimethoxyphenyl)-1H-imidazol-4-yl)amino)-1H-pyrazolo[3,4-d]pyrimidin-6-yl)pyrrolidine-1-carboxylate] | > 50
15 | COc1cc(-n2cnc(Nc3nc(C(C)C)nc4c3cnn4-c3ccc(F)cc3F)c2)cc(OC)c1OC [Compound 42d, 1-(2,4-difluorophenyl)-6-isopropyl-N-(1-(3,4,5-trimethoxyphenyl)-1H-imidazol-4-yl)-1H-pyrazolo[3,4-d]pyrimidin-4-amine] | > 50
16 | COc1cc(-n2cnc(Nc3nc(C(C)C)nc4c3cnn4-c3c(F)cccc3F)c2)cc(OC)c1OC [Compound 43d, 1-(2,6-difluorophenyl)-6-isopropyl-N-(1-(3,4,5-trimethoxyphenyl)-1H-imidazol-4-yl)-1H-pyrazolo[3,4-d]pyrimidin-4-amine] | > 50
17 | COc1cc(-n2cnc(Nc3nc(C4CCCC4)nc4c3cnn4C(C)C)c2)cc(OC)c1OC [Compound 44e, 6-cyclopentyl-1-isopropyl-N-(1-(3,4,5-trimethoxyphenyl)-1H-imidazol-4-yl)-1H-pyrazolo[3,4-d]pyrimidin-4-amine] | > 50
18 | COc1cc(-n2cnc(Nc3nc(C4CCOC4)nc4c3cnn4C(C)C)c2)cc(OC)c1OC (stereo not drawn) [Compound 45e, 1-isopropyl-6-(tetrahydrofuran-3-yl)-N-(1-(3,4,5-trimethoxyphenyl)-1H-imidazol-4-yl)-1H-pyrazolo[3,4-d]pyrimidin-4-amine] | > 50
19 | COc1cc(-n2cnc(Nc3nc(CC(C)C)nc4c3CCC4c3ccccc3)c2)cc(OC)c1OC (stereo not drawn) [Compound 46d, 2-isobutyl-7-phenyl-N-(1-(3,4,5-trimethoxyphenyl)-1H-imidazol-4-yl)-6,7-dihydro-5H-cyclopenta[d]pyrimidin-4-amine] | > 50
20 | COc1cc(-n2cnc(Nc3nc(C(C)CC(O)CO)nc4c3cnn4C(C)C)c2)cc(OC)c1OC (stereo not drawn) [Compound 47a, 4-(1-isopropyl-4-((1-(3,4,5-trimethoxyphenyl)-1H-imidazol-4-yl)amino)-1H-pyrazolo[3,4-d]pyrimidin-6-yl)pentane-1,2-diol] | > 50
21 | COc1cc(-n2cnc(Nc3nc(C4CCN(C)CC4)nc4c3cnn4C(C)C)c2)cc(OC)c1OC [Compound 48a, 1-isopropyl-6-(1-methylpiperidin-4-yl)-N-(1-(3,4,5-trimethoxyphenyl)-1H-imidazol-4-yl)-1H-pyrazolo[3,4-d]pyrimidin-4-amine] | > 50
22 | COc1cc(-n2cnc(Nc3nc(C(C)CCO)nc4c3cnn4C(C)C)c2)cc(OC)c1OC (stereo not drawn) [Compound 49b, 3-(1-isopropyl-4-((1-(3,4,5-trimethoxyphenyl)-1H-imidazol-4-yl)amino)-1H-pyrazolo[3,4-d]pyrimidin-6-yl)butan-1-ol] | > 50
23 | CNCCC(C)c1nc(Nc2cn(-c3cc(OC)c(OC)c(OC)c3)cn2)c2cnn(C(C)C)c2n1 (stereo not drawn) [Compound 50a, 1-isopropyl-6-(4-(methylamino)butan-2-yl)-N-(1-(3,4,5-trimethoxyphenyl)-1H-imidazol-4-yl)-1H-pyrazolo[3,4-d]pyrimidin-4-amine] | > 50
24 | C=C(C)c1nc(Nc2cn(-c3cc(OC)c(OC)c(OC)c3)cn2)c2sccc2n1 [Compound 51c, 2-(prop-1-en-2-yl)-N-(1-(3,4,5-trimethoxyphenyl)-1H-imidazol-4-yl)thieno[3,2-d]pyrimidin-4-amine] | > 50
25 | COc1cc(-n2cnc(Nc3nc(C(C)C)nc4ccsc34)c2)cc(OC)c1OC [Compound 52b, 2-isopropyl-N-(1-(3,4,5-trimethoxyphenyl)-1H-imidazol-4-yl)thieno[3,2-d]pyrimidin-4-amine hydrochloride] | > 50
26 | C=C(C)c1nc(Nc2cn(-c3cc(OC)c(OC)c(OC)c3)cn2)nc2ccsc12 [Compound 53c, 4-(prop-1-en-2-yl)-N-(1-(3,4,5-trimethoxyphenyl)-1H-imidazol-4-yl)thieno[3,2-d]pyrimidin-2-amine] | > 50
27 | COc1cc(-n2cnc(Nc3nc(C(C)C)c4sccc4n3)c2)cc(OC)c1OC [Compound 54a, 4-isopropyl-N-(1-(3,4,5-trimethoxyphenyl)-1H-imidazol-4-yl)thieno[3,2-d]pyrimidin-2-amine] | > 50
28 | C=C(C)c1nc(Nc2cn(-c3cc(OC)c(OC)c(OC)c3)cn2)nc2ccccc12 [Compound 55c, 4-(prop-1-en-2-yl)-N-(1-(3,4,5-trimethoxyphenyl)-1H-imidazol-4-yl)quinazolin-2-amine] | > 50
29 | COc1cc(-n2cnc(Nc3nc(C(C)C)c4ccccc4n3)c2)cc(OC)c1OC [Compound 56a, 4-isopropyl-N-(1-(3,4,5-trimethoxyphenyl)-1H-imidazol-4-yl)quinazolin-2-amine] | > 50
30 | COc1cc(-n2cnc(Nc3nc(C4CC(OCc5ccccc5)C4)nc4c3cnn4C(C)C)c2)cc(OC)c1OC (stereo not drawn) [Compound 57e, 6-(3-(benzyloxy)cyclobutyl)-1-isopropyl-N-(1-(3,4,5-trimethoxyphenyl)-1H-imidazol-4-yl)-1H-pyrazolo[3,4-d]pyrimidin-4-amine] | > 50
